From patent US20250161297A1, “COMPOSITIONS AND METHODS FOR INHIBITING FSP1” (THE REGENTS OF THE UNIVERSITY OF CALIFORNIA, priority 2022, published 2025)

Columns and labels:
[1] = system: panel of cancer cell lines of various tissue origins; assay: RSL3-induced cell death in a panel of cancer cell lines; format: cell-based; conditions: 1 μM FSEN1; lung, breast, liver, glial, bone, connective, lymphoid, skin lines
Method: For cell-based screen, cells were seeded in triplicate at a density of 500-750 cells per 50 μL per well in black 384-well plates (NUNC) and (Corning) 24 hr before start of imaging. After 24 hr, an additional 50 μL of drug infused medium containing 30 nM SYTOX Green Dead Cell Stain was carefully placed into the wells on top of existing medium. The plates were immediately transferred to an IncuCyte S3 imaging system (Essen Bioscience) enclosed in an incubator set to 37° C. and 5% CO2. One image per well were captured in the phase, green, and red channels every 1.5 or 3 hr over a 24 hr period, and the ratio of SYTOX Green-positive objects (dead cells) to SYTOX Green-positive plus Sg-SAFE mCherry-positive objects (total cells) was quantified using S3 image analysis software (Essen Bioscience). For each treatment condition, the SYTOX-to-′SYTOX+mCherry′-object ratio was plotted against the 24 hr imaging interval, the Area Under the Curve (AUC) was calculated and the average AUC was plotted using Prism (GraphPad). To calculate the half-maximal effective concentration (EC50) values, the AUC curve was fit to a variable slope function comparing response to drug concentration. […]

NQO1 = target: T1, NQO1 (Homo sapiens, UniProt P15559); assay: NQO1 CoQ oxidoreductase activity assay; format: biochemical
T1 construct: His6 (N); TEV cleavage site (N); made in house; host or cells: E. coli LOBSTR-BL21 (DE3)
Method: FSP1 and NQO1% Activity Curves: To measure in vitro activity of FSP1 and NQO1 for IC50 calculation, recombinant purified FSP1 and NQO1 were diluted in PBS. FSEN1 was dissolved and diluted in DMSO, and […] FSEN1 and 12.5 μL FSP1/NQO1 were mixed on an orbital shaker for 45 seconds at 450 rpm and incubated for 30 minutes in a NBS polystyrene 384-well plate (Corning Ref: 3640) at RT. NADH (Millipore Cat: 481913) was dissolved and diluted in PBS, and CoQ1 (Sigma-Aldrich SKU: C7956) was dissolved in DMSO and diluted in PBS. Diluted NADH and CoQ1 were combined into a 2×reaction mix and added to the plate wells to start the reaction. Final well volume was 25 μL, and final concentrations were 12.5n M FSP1, 400 µM CoQ1, 500 µM NADH, and 0.01-20 µM FSEN1. NADH Absorbance (355 nm) was measured as an inverse read-out of enzymatic product formation on a kinetic cycle with an interval time of 2.5 minutes at RT. All data was acquired using a Tecan infinite M1000. Raw data from 3 biological replicates were then plotted and initial slopes were calculated using a linear regression in prism (GraphPad), and all rates were normalized to vehicle (0 nM FSEN1) and No Protein controls where the highest and lowest slope values were used as 0 and 100%. […]

T1 sequence (P15559 2-274): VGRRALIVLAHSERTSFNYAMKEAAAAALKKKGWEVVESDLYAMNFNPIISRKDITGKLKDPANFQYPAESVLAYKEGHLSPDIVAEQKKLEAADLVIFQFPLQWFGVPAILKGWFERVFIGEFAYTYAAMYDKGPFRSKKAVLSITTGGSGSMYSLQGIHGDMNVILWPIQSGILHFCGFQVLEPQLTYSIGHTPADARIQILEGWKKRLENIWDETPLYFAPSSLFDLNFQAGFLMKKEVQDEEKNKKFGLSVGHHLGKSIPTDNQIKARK

Question: What does the source list for COc1ccc(N2CCN(Cc3cn4c(-c5ccc(Br)cc5)nnc4s3)CC2)cc1 [FSEN1]?
Answer: sensitization to RSL3-induced ferroptosis [1]: sensitized all cancer cells; effect on the CoQ oxidoreductase activity of NQO1 (NQO1): no effect
